Results on two compounds are retold here after patent publication US4232035A, “Carbamate pesticidal compounds compositions and methods of use” (priority 1975, dated 1980).

Data set [1] relates to bean aphid (Aphis fabae Scop.). Briefly: Bean Aphid Foliage Spray Test. Format: in vivo. Details: key: A: excellent control; B: partial control; C: no control. Particulars: 500 parts per million foliage spray; 24 hour holding period. How it is done: (§1) Suspensions of the test compounds were prepared by dissolving one gram of compound in 50 milliliters of acetone in which had been dissolved 0.1 gram (10 percent of the weight of compound) of an alkylphenoxy polyethoxyethanol surfactant, as an emulsifying or dispersing agent. The resulting solution was mixed into 150 milliliters of water to give roughly 200 milliliters of a suspension containing the compound in finely divided form. The thus-prepared stock suspension contained 0.5 percent by weight of compound. The test concentrations in parts per million by weight employed in the tests described hereinbelow were obtained by appropriate dilutions of the stock suspension with water. The test procedures were as follows:
Adults and nymphal stages of the bean aphid (Aphis fabae Scop.) reared on potted dwarf nasturtium plants at 65°-70° F. and 50-70 percent relative humidity, constituted the test insects. For testing purposes, the number of aphids per pot was standardized to 100-150 by trimming plants containing excess aphids.
The test compounds were formulated by diluting the stock suspension with water to give a suspension containing 500 parts of test compound per million parts of final formulation.
The potted plants (one pot per compound tested) infested with 100-150 aphids, were placed on a revolving turntable and sprayed with 100-110 milliliters of test compound formulation by use of a DeVilbiss spray gun set at 40 psig. air pressure. This application, which lasted 25 seconds, was sufficient to wet the plants to run-off. As a control, 100-110 milliliters of a water-acetone-emulsifier solution containing no test compound were also sprayed on infested plants. After spraying, the pots were placed on their sides on a sheet of white standard mimeograph paper which had been previously ruled to facilitate counting. Temperature and humidity in the test room during the 24 hour holding period were 65°-70° F. and 50-70 percent, respectively. Aphids which fell onto the paper and were unable to remain standing after being uprighted were considered dead. Aphids remaining on the plants were observed closely for movement and those which were unable to move the length of the body upon stimulation by prodding were considered dead. Percent mortality was recorded for various concentration levels.

Data set [2] deals with root-knot nematode (Meloidogyne incognita var. acrita). Description: Nematode Test. The format is in vivo. Also noted: key: 1: severe galling; equal to untreated control; 2: moderate galling; 3: light galling; 4: very light galling; 5: no galling. The settings on record: 10 ml of 500 parts per million formulation per jar of soil; cucumber indicator crop, approximately three weeks. The procedure: as §1
Infective migratory larvae of the root-knot nematode, (Meloidogyne incognita var. acrita) were reared in the greenhouse on roots of Rutgers variety tomato plant. Infected tomato plants were removed from the culture and the roots were chopped very finely. A small amount of inoculum from the roots was added to pint Mason jars containing approximately 180 cc of soil. The jars containing the inoculum and soil were capped and incubated for one week at room temperature. During this period eggs of the nematode hatched and the larvae forms migrated into the soil.
The test compounds were formulated by diluting the stock suspension with water to give a suspension containing 500 parts of test compound per million parts of final formulation. 10 milliliters of the test formulation was added to each of two jars for each dosage treated. As a control 10 milliliters of a water-acetone-emulsifier solution containing no test compound was also added to jars containing nematode larvae. The jars were capped and the contents thoroughly mixed on a kale mill for five minutes. The jars remained capped at room temperature for a period of 48 hours and the contents were then transferred to 3 inch pots. Subsequently, the pots were seeded to cucumber as an indicator crop and placed in the green house where they were cared for in the normal fashion for growing potted cucumber for approximately three weeks. These cucumber plants were then removed from the pots, the soil washed from the roots and the amount of galling visually rated.

Data set [3] in a line: Peroral toxicity to mammals (rat). Particulars: in vivo, po, mortality rate of 50 percent, read-out: A.O. Rat LD50. How it is done:
Certain of these compositions were also evaluated to determine their peroral toxicity to mammals. The animal selected for this experiment was the rat. The test results obtained are expressed in terms of the number of milligrams of compositions per kilogram of weight of the animal required to achieve a mortality rate of 50 percent (LD50).

The structures appear in SMILES notation.

Regarding `CN(SSC(C)(C)C)C(=O)ON=C1SCCS1`, in data set [1], the “Aphid, pesticidal activity rating” value was “A”. The “Nematodes, nematocidal toxicity rating (galling)” value in data set [2] came to 5. In addition, the LD50 in data set [3] came to 5.6 mg/kg.

Take `CN(SSC(C)(C)C)C(=O)ON=C1SC(C)(C)C(=O)N1C`: the “Aphid, pesticidal activity rating” value in data set [1] is listed as “A”. The “Nematodes, nematocidal toxicity rating (galling)” value in data set [2] came to 1. Besides, the LD50 in data set [3] was 299 mg/kg.
